According to ChEMBL document CHEMBL6177934, “Chemical synthetic approaches to mimic the TRAIL: promising cancer therapeutics” (RSC Med Chem, 2024):
Starred links: 1 amine or outer side, 2 acyl side, 3 side chain; linkers in the order of their positions; H or OH if unused. Positions of bridges follow the written chain, without caps; N, C: chain ends. Residues, ends and D or L forms follow the SMILES beside them. Chains are numbered I, II in the order given. *: point of attachment. X1 = NC12CC3(C(=O)NCCCCCC(=O)[*:1])CC(C(=O)NCCCCCC(=O)[*:2])(C1)CC(C(=O)NCCCCCC(=O)[*:3])(C2)C3; X2 = O=C(CCC(=O)[*:1])NCCCC12CC3CC(CCCNC(=O)CCC(=O)[*:2])(C1)CC(CCCNC(=O)CCC(=O)[*:3])(C3)C2; Diglycolyl = O=C(COCC(=O)[*:2])[*:1]; X3 = CC(C)C[C@@H](C)N*

Biological target: Tumor necrosis factor receptor superfamily member 10B (Homo sapiens, UniProt O14763)
Sequence (O14763 whole entry): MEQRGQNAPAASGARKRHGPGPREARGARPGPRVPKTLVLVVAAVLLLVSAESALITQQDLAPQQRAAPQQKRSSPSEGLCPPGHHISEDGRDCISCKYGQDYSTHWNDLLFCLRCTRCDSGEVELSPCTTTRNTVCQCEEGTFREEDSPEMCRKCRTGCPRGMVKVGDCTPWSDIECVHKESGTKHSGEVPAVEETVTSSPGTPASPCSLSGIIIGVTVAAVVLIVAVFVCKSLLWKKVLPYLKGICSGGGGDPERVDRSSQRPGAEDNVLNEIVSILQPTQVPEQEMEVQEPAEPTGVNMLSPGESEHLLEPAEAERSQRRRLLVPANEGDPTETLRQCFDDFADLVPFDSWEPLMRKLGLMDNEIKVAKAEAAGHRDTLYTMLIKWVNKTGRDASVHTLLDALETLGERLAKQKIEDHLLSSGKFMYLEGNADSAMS
Test: Binding affinity to human recombinant DR5 assessed as dissociation constant by SPR analysis

Compound | Kd [nM]
CC[C@H](C)[C@@H]1NC(=O)[C@H](CCCNC(=N)N)NC(=O)[C@H](CC(N)=O)NC(=O)[C@H](CC(=O)O)NC(=O)[C@H](CC(C)C)NC(=O)[C@@H](NC(=O)[C@H](CC(=O)O)NC(=O)[C@H](Cc2c[nH]c3ccccc23)NC(C)=O)CSSC[C@@H](C(=O)N[C@H](C(=O)N[C@@H](CCCCNC(=O)COCC(=O)NCCCC[C@H](NC(=O)[C@@H](NC(=O)[C@@H]2CSSC[C@H](NC(=O)[C@H](CC(=O)O)NC(=O)[C@H](Cc3c[nH]c4ccccc34)NC(C)=O)C(=O)N[C@@H](CC(C)C)C(=O)N[C@@H](CC(=O)O)C(=O)N[C@@H](CC(N)=O)C(=O)N[C@@H](CCCNC(=N)N)C(=O)N[C@@H]([C@@H](C)CC)C(=O)NCC(=O)N[C@@H](CCCNC(=N)N)C(=O)N[C@@H](CCCNC(=N)N)C(=O)N[C@@H](CCC(N)=O)C(=O)N2)C(C)C)C(=O)N[C@@H](CC(C)C)C(N)=O)C(=O)N[C@@H](CC(C)C)C(N)=O)C(C)C)NC(=O)[C@H](CCC(N)=O)NC(=O)[C@H](CCCNC(=N)N)NC(=O)[C@H](CCCNC(=N)N)NC(=O)CNC1=O (I: Ac-WDCLDNRIGRRQCVKL-NH2 / II: Ac-WDCLDNRIGRRQCVKL-NH2; disulfide I:3-I:13, II:3-II:13; linker I:15-II:15 via Diglycolyl) | 1.24
I: Ac-WDCLDNRIGRRQCVKL-NH2 / II: Ac-WDCLDNRIGRRQCVKL-NH2 / III: Ac-WDCLDNRIGRRQCVKL-NH2 (disulfide I:3-I:13, II:3-II:13, III:3-III:13; linker I:15-II:15-III:15 via X2) | 0.88
CC[C@H](C)[C@@H]1NC(=O)[C@H](CCCCNC(=O)COCC(=O)NCCCC[C@@H]2NC(=O)[C@H](CC(N)=O)NC(=O)[C@H](CC(=O)O)NC(=O)[C@H](CC(C)C)NC(=O)[C@@H](NC(=O)[C@H](CC(=O)O)NC(=O)[C@H](Cc3c[nH]c4ccccc34)NC(C)=O)CSSC[C@@H](C(=O)N[C@H](C(=O)N[C@@H](CCCCN)C(=O)N[C@@H](CC(C)C)C(N)=O)C(C)C)NC(=O)[C@H](CCC(N)=O)NC(=O)[C@H](CCCNC(=N)N)NC(=O)[C@H](CCCNC(=N)N)NC(=O)CNC(=O)[C@H]([C@@H](C)CC)NC2=O)NC(=O)[C@H](CC(N)=O)NC(=O)[C@H](CC(=O)O)NC(=O)[C@H](CC(C)C)NC(=O)[C@@H](NC(=O)[C@H](CC(=O)O)NC(=O)[C@H](Cc2c[nH]c3ccccc23)NC(C)=O)CSSC[C@@H](C(=O)N[C@H](C(=O)N[C@@H](CCCCN)C(=O)N[C@@H](CC(C)C)C(N)=O)C(C)C)NC(=O)[C@H](CCC(N)=O)NC(=O)[C@H](CCCNC(=N)N)NC(=O)[C@H](CCCNC(=N)N)NC(=O)CNC1=O (I: Ac-WDCLDNKIGRRQCVKL-NH2 / II: Ac-WDCLDNKIGRRQCVKL-NH2; disulfide I:3-I:13, II:3-II:13; linker I:7-II:7 via Diglycolyl) | 2.29
I: Ac-WDCLDNRIGKRQCVKL-NH2 / II: Ac-WDCLDNRIGKRQCVKL-NH2 / III: Ac-WDCLDNRIGKRQCVK-X3 (disulfide I:3-I:13, II:3-II:13, III:3-III:13; linker I:10-II:10-III:10 via X2) | 0.539
CC[C@H](C)[C@@H]1NC(=O)[C@H](CCCNC(=N)N)NC(=O)[C@H](CC(N)=O)NC(=O)[C@H](CC(=O)O)NC(=O)[C@H](CC(C)C)NC(=O)[C@@H](NC(=O)[C@H](CC(=O)O)NC(=O)[C@H](Cc2c[nH]c3ccccc23)NC(C)=O)CSSC[C@@H](C(=O)N[C@H](C(=O)N[C@@H](CCCCN)C(=O)N[C@@H](CC(C)C)C(N)=O)C(C)C)NC(=O)[C@H](CCC(N)=O)NC(=O)[C@H](CCCNC(=N)N)NC(=O)[C@H](CCCCNC(=O)COCC(=O)NCCCC[C@@H]2NC(=O)CNC(=O)[C@H]([C@@H](C)CC)NC(=O)[C@H](CCCNC(=N)N)NC(=O)[C@H](CC(N)=O)NC(=O)[C@H](CC(=O)O)NC(=O)[C@H](CC(C)C)NC(=O)[C@@H](NC(=O)[C@H](CC(=O)O)NC(=O)[C@H](Cc3c[nH]c4ccccc34)NC(C)=O)CSSC[C@@H](C(=O)N[C@H](C(=O)N[C@@H](CCCCN)C(=O)N[C@@H](CC(C)C)C(N)=O)C(C)C)NC(=O)[C@H](CCC(N)=O)NC(=O)[C@H](CCCNC(=N)N)NC2=O)NC(=O)CNC1=O (I: Ac-WDCLDNRIGKRQCVKL-NH2 / II: Ac-WDCLDNRIGKRQCVKL-NH2; disulfide I:3-I:13, II:3-II:13; linker I:10-II:10 via Diglycolyl) | 0.114
I: Ac-WDCLDNKIGRRQCVKL-NH2 / II: Ac-WDCLDNKIGRRQCVKL-NH2 / III: Ac-WDCLDNKIGRRQCVKL-NH2 (disulfide I:3-I:13, II:3-II:13, III:3-III:13; linker I:7-II:7-III:7 via X2) | 0.05
I: Ac-WDCLDNRIGRRQCVKL-NH2 / II: Ac-WDCLDNRIGRRQCVKL-NH2 / III: Ac-WDCLDNRIGRRQCVKL-NH2 (disulfide I:3-I:13, II:3-II:13, III:3-III:13; linker I:15-II:15-III:15 via X1) | 9.1

Test system: BJAB
Test: Antiproliferative activity against human BJAB cells assessed as reduction in cell viability incubated for 16 hrs by MTS assay
Assay type: functional, cell-based

Compound | IC50 [nM]
I: Ac-WDCLDNRIGRRQCVKL-NH2 / II: Ac-WDCLDNRIGRRQCVKL-NH2 / III: Ac-WDCLDNRIGRRQCVKL-NH2 (disulfide I:3-I:13, II:3-II:13, III:3-III:13; linker I:15-II:15-III:15 via X1) | 31.2
